Experiments:
Type in all cases: in vivo
Spodoptera littoralis = Spodoptera littoralis (Egyptian cotton leafworm) cotton leaf disc spray test; conditions: foliar, 72 h, application rate of 200 ppm, cotton leaf discs, L1 larvae, mortality, feeding behavior, growth regulation 3 days after treatment
Excerpt: Spodoptera littoralis (Egyptian cotton leafworm): Cotton leaf discs were placed on agar in a 24-well microtiter plate and sprayed with test solutions at an application rate of 200 ppm. After drying, the leaf discs were infested with 5 L1 larvae. The samples were checked for mortality, feeding behavior, and growth regulation 3 days after treatment (DAT).

Thrips tabaci = Thrips tabaci (Onion thrips) sunflower leaf disc spray test; conditions: foliar, 168 h, application rate of 200 ppm, sunflower leaf discs, population of mixed ages, mortality after 7 days
Description: Thrips tabaci (Onion thrips): Sunflower leaf discs were placed on agar in a 24-well microtiter plate and sprayed with test solutions at an application rate of 200 ppm. […] After an incubation period of 7 days, samples were checked for mortality.

Myzus persicae = Myzus persicae (Green peach aphid) sunflower leaf disc spray test; conditions: foliar, 144 h, application rate of 200 ppm, sunflower leaf discs, aphid population of mixed ages, mortality after 6 DAT
Description: Myzus persicae (Green peach aphid): Sunflower leaf discs were placed on agar in a 24-well microtiter plate and sprayed with test solutions at an application rate of 200 ppm. After drying, the leaf discs were infested with an aphid population of mixed ages. After an incubation period of 6 DAT, samples were checked for mortality.

Tetranychus urticae = Tetranychus urticae (Two-spotted spider mite) bean leaf disc spray test; conditions: foliar, 192 h, application rate of 200 ppm, bean leaf discs, mite populations of mixed ages, egg, larval and adult mortality 8 days later
Excerpt: Tetranychus urticae (Two-spotted spider mite): Bean leaf discs on agar in 24-well microtiter plates were sprayed with test solutions at an application rate of 200 ppm. After drying, the leaf discs are infested with mite populations of mixed ages. 8 days later, discs are checked for egg mortality, larval mortality, and adult mortality.

Plutella xylostella = Plutella xylostella (Diamond back moth) larva test on artificial diet; conditions: 144 h, application rate of 200 ppm (concentration in well 18 ppm), L2 larvae, larval mortality and growth regulation after 6 days
Description: Plutella xylostella (Diamond back moth): 24-well microtiter plate (MTP) with artificial diet was treated with test solutions at an application rate of 200 ppm (concentration in well 18 ppm) by pipetting. After drying, the MTP's were infested with L2 larvae (7-12 per well). After an incubation period of 6 days, samples were checked for larval mortality and growth regulation.

Diabrotica balteata = Diabrotica balteata (Corn root worm) larva test on artificial diet; conditions: 120 h, application rate of 200 ppm (concentration in well 18 ppm), L2 larvae, larval mortality and growth regulation after 5 days
Description: Diabrotica balteata (Corn root worm): A 24-well microtiter plate (MTP) with artificial diet was treated with test solutions at an application rate of 200 ppm (concentration in well 18 ppm) by pipetting. After drying, the MTP's were infested with L2 larvae (6-10 per well). After an incubation period of 5 days, samples were checked for larval mortality and growth regulation.

Heliothis virescens = Heliothis virescens (Tobacco budworm) egg/larva test on artificial diet; conditions: 96 h, application rate of 200 ppm (concentration in well 18 ppm), eggs 0-24 h old on artificial diet, egg mortality, larval mortality, growth regulation after 4 days
Description: Heliothis virescens (Tobacco budworm): Eggs (0-24 h old) were placed in 24-well microtiter plate on artificial diet and treated with test solutions at an application rate of 200 ppm (concentration in well 18 ppm) by pipetting. After an incubation period of 4 days, samples were checked for egg mortality, larval mortality, and growth regulation.

Measured: pest or weed control at 200 ppm

CCCN(C(=O)c1ccc[n+]([O-])c1)c1cccc(C(=O)N(C)c2c(Cl)cc(C(F)(C(F)(F)F)C(F)(F)F)cc2Br)c1F [Compound 1, N′-[3-[[2-bromo-6-chloro-4-[1,1,1,2,3,3,3-heptafluoro-prop-2-yl]phenyl]-N′-methyl-carbamoyl]-2-fluoro-phenyl]-N-propyl-1-oxido-pyridin-1-ium-3-carboxamide]
not listed: Diabrotica balteata | Heliothis virescens
≥ 80%: all other assays above

CCN(C(=O)c1cccnc1)c1cccc(C(=O)Nc2c(C)cc(C(F)(C(F)(F)F)C(F)(F)F)cc2Cl)c1F [Compound 18]
≥ 80%: all assays above

Cc1cc(C(F)(C(F)(F)F)C(F)(F)F)cc(Br)c1N(C)C(=O)c1cccc(N(C)C(=O)c2cccnc2)c1F [Compound 3]
not listed: Tetranychus urticae
≥ 80%: all other assays above

CN(C(=O)c1ccc[n+]([O-])c1)c1cccc(C(=O)Nc2c(Cl)cc(C(F)(C(F)(F)F)C(F)(F)F)cc2Br)c1F [Compound 5]
not listed: Thrips tabaci
≥ 80%: all other assays above

CCc1cc(C(F)(C(F)(F)F)C(F)(F)F)cc(Br)c1N(C)C(=O)c1cccc(N(C)C(=O)c2cccnc2)c1F [Compound 2]
≥ 80%: all assays above

CCCN(C(=O)c1cccnc1)c1cccc(C(=O)Nc2c(Cl)cc(C(F)(C(F)(F)F)C(F)(F)F)cc2Cl)c1 [Compound 8]
not listed: Tetranychus urticae
≥ 80%: all other assays above

CCN(C(=O)c1cccnc1)c1cccc(C(=O)Nc2c(Br)cc(C(F)(C(F)(F)F)C(F)(F)F)cc2Br)c1F [Compound 11]
≥ 80%: all assays above

CCN(C(=O)c1ccc[n+]([O-])c1)c1cccc(C(=O)Nc2c(Cl)cc(C(F)(C(F)(F)F)C(F)(F)F)cc2Br)c1F [Compound 7]
not listed: Thrips tabaci
≥ 80%: all other assays above

CCCN(C(=O)c1ccc[n+]([O-])c1)c1cccc(C(=O)Nc2c(Cl)cc(C(F)(C(F)(F)F)C(F)(F)F)cc2Cl)c1 [Compound 9]
≥ 80%: Thrips tabaci | Heliothis virescens | Myzus persicae | Plutella xylostella

CCN(C(=O)c1ccc[n+]([O-])c1)c1cccc(C(=O)Nc2c(Br)cc(C(F)(C(F)(F)F)C(F)(F)F)cc2Br)c1F [Compound 13]
≥ 80%: all assays above

CCN(C(=O)c1cccnc1)c1cccc(C(=O)Nc2c(Cl)cc(C(F)(C(F)(F)F)C(F)(F)F)cc2Cl)c1F [Compound 16]
≥ 80%: all assays above

Cc1cc(C(F)(C(F)(F)F)C(F)(F)F)cc(Cl)c1NC(=O)c1cccc(N(C)C(=O)c2cccnc2)c1F [Compound 17]
≥ 80%: all assays above

CN(C(=O)c1cccnc1)c1cccc(C(=O)N(C)c2c(Br)cc(C(F)(C(F)(F)F)C(F)(F)F)cc2Br)c1 [Compound 15]
not listed: Tetranychus urticae | Diabrotica balteata
≥ 80%: all other assays above

CN(C(=O)c1cccnc1)c1cccc(C(=O)Nc2c(Cl)cc(C(F)(C(F)(F)F)C(F)(F)F)cc2Br)c1F [Compound 4]
not listed: Spodoptera littoralis
≥ 80%: all other assays above

CCN(C(=O)c1cccnc1)c1cccc(C(=O)Nc2c(Cl)cc(C(F)(C(F)(F)F)C(F)(F)F)cc2Br)c1F [Compound 6]
≥ 80%: all assays above

CN(C(=O)c1cccnc1)c1cccc(C(=O)Nc2c(Br)cc(C(F)(C(F)(F)F)C(F)(F)F)cc2Br)c1F [Compound 12]
≥ 80%: all assays above
